# Results: patent US20230203058A1, “MACROCYCLIC DIAMINE DERIVATIVES AS ENT INHIBITORS FOR THE TREATMENT OF CANCERS, AND COMBINATION THEREOF WITH ADENOSINE RECEPTOR ANTAGONISTS” (ITEOS BELGIUM SA, priority 2020, published 2023)
# Molecular target: T1, human ENT1 (Homo sapiens, UniProt Q99808)
# T1 sequence (Q99808 1-456): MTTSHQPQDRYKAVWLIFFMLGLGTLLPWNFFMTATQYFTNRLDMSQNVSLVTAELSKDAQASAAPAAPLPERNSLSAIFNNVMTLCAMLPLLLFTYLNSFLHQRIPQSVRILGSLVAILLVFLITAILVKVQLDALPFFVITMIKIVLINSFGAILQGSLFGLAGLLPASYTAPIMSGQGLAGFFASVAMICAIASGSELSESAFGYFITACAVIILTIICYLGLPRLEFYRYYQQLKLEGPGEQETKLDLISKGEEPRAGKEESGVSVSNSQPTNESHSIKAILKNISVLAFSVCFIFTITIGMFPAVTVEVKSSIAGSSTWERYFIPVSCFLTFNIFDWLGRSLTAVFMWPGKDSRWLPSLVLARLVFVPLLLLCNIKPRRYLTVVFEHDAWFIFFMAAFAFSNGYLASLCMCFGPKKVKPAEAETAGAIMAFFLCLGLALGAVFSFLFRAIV
# Assay: ENT1 binding assay (competition with Sahenta-DY647 on JAR cells)
# Design: JAR cells expressing ENT1 were bought from ATCC® (HTB-144TM); host or cells: JAR cells (human choriocarcinoma line; whole cells)
# Details: competition with Sahenta-DY647 100 nM, 4° C.
# Method: The present assay aims at showing that the compounds of the present invention can bind to human ENT1. The principle of the assay is a competition between the compounds of this invention and Sahenta-DY647, an ENT1 inhibitor that emits fluorescence (Ex = 630 nm, Em = 670 nm). By measuring the fluorescence at the end of the assay we could assess the binding potency of the compounds of the present invention.
# JAR cells expressing ENT1 were bought from ATCC® (HTB-144TM). Cells were cultured in RPMI 1640 medium (LONZA®, #BE12-702F/U1) supplemented with 10% FBS (GIBCO®, #10270-106), 10 mM Hepes (LONZA®, #BE17-737E), 1 mM Sodium Pyruvate (LONZA®, #BE13-115E) and 2% Penicillin/Streptomycin (LONZA®, #DE17-603E) at 37° C. and 5% CO2. The assay was conducted on the following buffer: HBSS (LONZA®, #LO-527F) supplemented with 10 mM Hepes (LONZA®, #BE17-737E) and 0.1% BSA (Miltenyi®, #130-091-376) on the day of the assay. JAR cells were resuspended in the described buffer. Compounds of the present invention and Sahenta-DY647 were diluted 200X in the described buffer.
# A total of 50000 cells were pre-incubated for 30 min at 4° C. with the compounds of the present invention before adding the corresponded IC90 of Sahenta-DY647 (100 nM) and incubate once more for 30 min at 4° C. The total volume of the reaction was 100 µL (50 µL of cells, 25 µL of the compounds of the present invention and 25 µL of Sahenta-DY647) in a 96 well plate, U-bottom (Greiner®, #650-180). The plates were washed 2X by centrifugation (4 min, 400 rcf at 4° C.) in the same buffer. Cells were resuspended in 70 µL of the buffer and 50 µL was transferred to a Black 384 Optiplate (PerkinElmer®, #6007279). Fluorescence (Ex = 630 nm, Em = 670 nm) was acquired on a Spectramax i3x (Molecular Devices®).
smiles,measurement,value
"COc1cc2cc(c1OC)OCCCC(OC(=O)c1cccc(C#N)c1)CCN1CCCN(CCCOC2=O)CC1 (stereo not drawn) [Compound 73, 74,75-dimethoxy-6-oxo-5,8-dioxa-1(1,4)-diazepana-7(1,3)-benzenacyclotetradecaphane-12-yl 3-cyanobenzoate]",IC50,1 to 20 nM
"COc1cc2cc(c1OC)OCCCC(OC(=O)c1ccc3c(c1)CCC(=O)N3)CCN1CCCN(CCCOC2=O)CC1 (stereo not drawn) [Compound 74, 74,75-dimethoxy-6-oxo-5,8-dioxa-1(1,4)-diazepana-7(1,3)-benzenacyclotetradecaphane-12-yl 2-oxo-1,2,3,4-tetrahydroquinoline-6-carboxylate]",IC50,1 to 20 nM
"COc1cc2cc(c1OC)OCCCC(OC(=O)c1cccc(OC(F)F)c1)CCN1CCCN(CCCOC2=O)CC1 (stereo not drawn) [Compound 75, 74,75-dimethoxy-6-oxo-5,8-dioxa-1(1,4)-diazepana-7(1,3)-benzenacyclotetradecaphane-12-yl 3-(difluoromethoxy)benzoate]",IC50,20 to 500 nM
"COc1cc2cc(c1OC)OCCCC(OC(=O)c1cc(Cl)cc(Cl)c1)CCN1CCCN(CCCOC2=O)CC1 (stereo not drawn) [Compound 76, 74,75-dimethoxy-6-oxo-5,8-dioxa-1(1,4)-diazepana-7(1,3)-benzenacyclotetradecaphane-12-yl 3,5-dichlorobenzoate]",IC50,20 to 500 nM
"COc1cc2cc(c1OC)OCCCC(OC(=O)c1cccc(Cl)c1Cl)CCN1CCCN(CCCOC2=O)CC1 (stereo not drawn) [Compound 78, 74,75-dimethoxy-6-oxo-5,8-dioxa-1(1,4)-diazepana-7(1,3)-benzenacyclotetradecaphane-12-yl 2,3-dichlorobenzoate]",IC50,1 to 20 nM
"COc1cc2cc(c1OC)OCCCC(OC(=O)c1c(F)ccc(C)c1Cl)CCN1CCCN(CCCOC2=O)CC1 (stereo not drawn) [Compound 79, 74,75-dimethoxy-6-oxo-5,8-dioxa-1(1,4)-diazepana-7(1,3)-benzenacyclotetradecaphane-12-yl 2-chloro-6-fluoro-3-methylbenzoate]",IC50,1 to 20 nM
"COc1cc2cc(c1OC)OCCCC(OC(=O)c1ccc(F)c(C(F)(F)F)c1)CCN1CCCN(CCCOC2=O)CC1 (stereo not drawn) [Compound 81, 74,75-dimethoxy-6-oxo-5,8-dioxa-1(1,4)-diazepana-7(1,3)-benzenacyclotetradecaphane-12-yl 4-fluoro-3-(trifluoromethyl)benzoate]",IC50,1 to 20 nM
"COc1cc2cc(c1OC)OCCCC(OC(=O)c1ccc(C#N)c(F)c1)CCN1CCCN(CCCOC2=O)CC1 (stereo not drawn) [Compound 82, 74,75-dimethoxy-6-oxo-5,8-dioxa-1(1,4)-diazepana-7(1,3)-benzenacyclotetradecaphane-12-yl 4-cyano-3-fluorobenzoate]",IC50,1 to 20 nM
"COc1cc2cc(c1OC)OCCCC(OC(=O)c1ccc(C(F)(F)F)cc1)CCN1CCCN(CCCOC2=O)CC1 (stereo not drawn) [Compound 83, 74,75-dimethoxy-6-oxo-5,8-dioxa-1(1,4)-diazepana-7(1,3)-benzenacyclotetradecaphane-12-yl 4-(trifluoromethyl)benzoate]",IC50,1 to 20 nM
"COc1cc2cc(c1OC)OCCCC(OC(=O)c1cc(F)cc(F)c1)CCN1CCCN(CCCOC2=O)CC1 (stereo not drawn) [Compound 84, 74,75-dimethoxy-6-oxo-5,8-dioxa-1(1,4)-diazepana-7(1,3)-benzenacyclotetradecaphane-12-yl 3,5-difluorobenzoate]",IC50,1 to 20 nM
"COc1cc2cc(c1OC)OCCCC(OC(=O)c1ccc(F)c(F)c1)CCN1CCCN(CCCOC2=O)CC1 (stereo not drawn) [Compound 85, 74,75-dimethoxy-6-oxo-5,8-dioxa-1(1,4)-diazepana-7(1,3)-benzenacyclotetradecaphane-12-yl 3,4-difluorobenzoate]",IC50,1 to 20 nM
"COc1cc2cc(c1OC)OCCCC(OC(=O)c1ccc(F)c(C#N)c1)CCN1CCCN(CCCOC2=O)CC1 (stereo not drawn) [Compound 86, 74,75-dimethoxy-6-oxo-5,8-dioxa-1(1,4)-diazepana-7(1,3)-benzenacyclotetradecaphane-12-yl 3-cyano-4-fluorobenzoate]",IC50,1 to 20 nM
"COc1cc2cc(c1OC)OCCCC(OC(=O)c1ccc(C#N)cc1)CCN1CCCN(CCCOC2=O)CC1 (stereo not drawn) [Compound 87, 74,75-dimethoxy-6-oxo-5,8-dioxa-1(1,4)-diazepana-7(1,3)-benzenacyclotetradecaphane-12-yl 4-cyanobenzoate]",IC50,1 to 20 nM
"COc1cc2cc(c1OC)OCCCC(OC(=O)c1ccc3c(c1)ncn3C)CCN1CCCN(CCCOC2=O)CC1 (stereo not drawn) [Compound 89, 74,75-dimethoxy-6-oxo-5,8-dioxa-1(1,4)-diazepana-7(1,3)-benzenacyclotetradecaphane-12-yl 1-methyl-1 H-benzo [d] imidazole-5-carboxylate]",IC50,1 to 20 nM
"COc1cc2cc(c1OC)OCCCC(OC(=O)c1ccc(-c3cnco3)cc1)CCN1CCCN(CCCOC2=O)CC1 (stereo not drawn) [Compound 90, 74,75-dimethoxy-6-oxo-5,8-dioxa-1(1,4)-diazepana-7(1,3)-benzenacyclotetradecaphane-12-yl 4-(oxazol-5-yl)benzoate]",IC50,1 to 20 nM
"COc1cc2cc(c1OC)OCCCC(OC(=O)c1cc(Cl)c(Cl)cc1F)CCN1CCCN(CCCOC2=O)CC1 (stereo not drawn) [Compound 91, 74,75-dimethoxy-6-oxo-5,8-dioxa-1(1,4)-diazepana-7(1,3)-benzenacyclotetradecaphane-12-yl 4,5-dichloro-2-fluorobenzoate]",IC50,1 to 20 nM
"CCOc1cc(C(=O)OC2CCCOc3cc(cc(OC)c3OC)C(=O)OCCCN3CCCN(CC2)CC3)cc(OCC)c1OCC (stereo not drawn) [Compound 92, 74,75-dimethoxy-6-oxo-5,8-dioxa-1(1,4)-diazepana-7(1,3)-benzenacyclotetradecaphane-12-yl 3,4,5-triethoxybenzoate]",IC50,1 to 20 nM
"COc1cc2cc(c1OC)OCCCC(OC(=O)CCC#N)CCN1CCCN(CCCOC2=O)CC1 (stereo not drawn) [Compound 95, 74,75-dimethoxy-6-oxo-5,8-dioxa-1(1,4)-diazepana-7(1,3)-benzenacyclotetradecaphane-12-yl 3-cyanopropanoate]",IC50,1 to 20 nM
"COc1cc2cc(c1OC)OCCCC(OC(=O)CCn1cnnn1)CCN1CCCN(CCCOC2=O)CC1 (stereo not drawn) [Compound 98, 74,75-dimethoxy-6-oxo-5,8-dioxa-1(1,4)-diazepana-7(1,3)-benzenacyclotetradecaphane-12-yl 3-(1 H-tetrazol-1-yl)propanoate]",IC50,1 to 20 nM
"CNC(=O)CCC(=O)OC1CCCOc2cc(cc(OC)c2OC)C(=O)OCCCN2CCCN(CC1)CC2 (stereo not drawn) [Compound 101, 74,75-dimethoxy-6-oxo-5,8-dioxa-1(1,4)-diazepana-7(1,3)-benzenacyclotetradecaphane-12-yl 4-(methylamino)-4-oxobutanoate]",IC50,1 to 20 nM
"COc1cc2cc(c1OC)OCCCC(OC(=O)CCn1cncn1)CCN1CCCN(CCCOC2=O)CC1 (stereo not drawn) [Compound 102, 74,75-dimethoxy-6-oxo-5,8-dioxa-1 (1,4)-diazepana-7(1,3)-benzenacyclotetradecaphane-12-yl 3-(1H-1,2,4-triazol-1-yl)propanoate]",IC50,1 to 20 nM
"COc1cc2cc(c1OC)OCCCC(OC(=O)CCC(=O)N1CCOCC1)CCN1CCCN(CCCOC2=O)CC1 (stereo not drawn) [Compound 103, 74,75-dimethoxy-6-oxo-5,8-dioxa-1 (1,4)-diazepana-7(1,3)-benzenacyclotetradecaphane-12-yl 4-morpholino-4-oxobutanoate]",IC50,1 to 20 nM
"COc1cc2cc(c1OC)OCCCC(OC(=O)CCOc1ccc(F)cc1)CCN1CCCN(CCCOC2=O)CC1 (stereo not drawn) [Compound 104, 74,75-dimethoxy-6-oxo-5,8-dioxa-1(1,4)-diazepana-7(1,3)-benzenacyclotetradecaphane-12-yl 3-(4-fluorophenoxy)propanoate]",IC50,1 to 20 nM
"COc1cc2cc(c1OC)OCCCC(OC(=O)C1CCC(F)(F)CC1)CCN1CCCN(CCCOC2=O)CC1 (stereo not drawn) [Compound 105, 74,75-dimethoxy-6-oxo-5,8-dioxa-1(1,4)-diazepana-7(1,3)-benzenacyclotetradecaphane-12-yl 4,4-difluorocyclohexane-1-carboxylate]",IC50,1 to 20 nM
